In one test the target is T1, biotinylated B7-H3 (Homo sapiens, UniProt Q5ZPR3).
T1 sequence (Q5ZPR3 29-534): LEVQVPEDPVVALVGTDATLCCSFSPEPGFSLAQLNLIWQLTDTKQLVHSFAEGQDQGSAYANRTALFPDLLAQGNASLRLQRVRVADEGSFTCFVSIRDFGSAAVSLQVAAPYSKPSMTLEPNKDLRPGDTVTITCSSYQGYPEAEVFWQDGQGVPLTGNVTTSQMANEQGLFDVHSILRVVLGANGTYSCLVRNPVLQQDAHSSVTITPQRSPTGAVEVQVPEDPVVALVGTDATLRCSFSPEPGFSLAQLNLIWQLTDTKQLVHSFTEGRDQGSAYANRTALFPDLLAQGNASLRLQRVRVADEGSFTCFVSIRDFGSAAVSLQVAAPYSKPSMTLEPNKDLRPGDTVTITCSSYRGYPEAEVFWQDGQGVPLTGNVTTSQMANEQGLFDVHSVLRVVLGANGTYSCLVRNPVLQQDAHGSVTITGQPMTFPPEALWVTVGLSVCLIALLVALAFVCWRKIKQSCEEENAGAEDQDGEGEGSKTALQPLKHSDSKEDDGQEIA
The experiment in a line: Surface Plasmon Resonance (SPR) analysis against biotinylated B7-H3. The settings on record: biotinylated B7-H3, 25° C., 1:1 binding kinetics model, read-out: binding affinity towards B7-H3. From the text: (§1) FIGS. 4A-4G. (FIG. 4A) Selection schematic detailing the selection process for identifying binders against B7-H3. (FIG. 4B) qPCR results of the mTG mediated B7-H3 selection. (FIG. 4C) B7-H3 selection results and complete NGS analysis of B7-H3 hits. (FIG. 4D) NGS data of the selection hits. […] Arrow indicates the peptide pursued for binding validation. (FIG. 4E) EIC ([M+2], 948.91 m/z) traces corresponding to the product of the mTG reaction with linear B1.1 peptide and the synthetic lactam, disulfide peptide. (FIG. 4F) Surface Plasmon Resonance (SPR) analysis of the selected peptide (B1.1), the Met9Nle variant, and the linear variant. […] The selected B1.1 and the Met9Nle variant were analyzed at analyte concentrations of 7.5, 15, 30, 60, 120 nM. The linear variant was analyzed at analyte concentrations of 50, 100, 200, 400, 800 nM. […] (FIG. 4G) Individual SPR curves. Fitted curve and raw data are shown.
(§2) Surface Plasmon Resonance (SPR) analysis. Binding kinetics between our selected peptide (and variants) and biotinylated B7-H3 (B7-H3b) were assessed through SPR analysis using a BIACORE 8K SPR system (GE Healthcare). The running buffer was 1×PBS pH7.5, 0.05% TWEEN® 20 and all analysis was carried out at 25° C. B7-H3b was loaded onto a NeutrAvidin SPR Chip (Series S Sensor Chip NA, 29407997, Cytiva) at a flow rate of […] to a surface density of 1000-1500 response units. Analyte was then injected over a series of five concentrations and quantified by BIACORE single-cycle kinetics method. For our selected peptide (B1.1) and the Met9Nle variant a range of 7.5, 15, 30, 60, 120 nM were run. For the linear variant concentrations of 50, 100, 200, 400, 800 nM were run. Binding sonograms were generated using a standard 1:1 binding kinetics model and kinetics constants determined using standard BIACORE evaluation software.

For test [1], the system named is B7-H3. The test can be described thus: kd (s^-1).
From the text: (§3) Table printed on a drawing sheet, FIG. 4F
Head of the field: kd (s^-1)
as §1, with “The patent's description of the figure: FIGS.” for “FIGS.”
(§4) First copying reader's note: Brackets drawn on the SELECTED and MET9NLE sequences join C to C (above) and Q to K (below), marking a bicyclic peptide; LINEAR has no brackets.
(§5) Where the first naming reader finds the target: passage: Binding affinities were assessed for each peptide by surface plasmon resonance (SPR) against biotinylated B7-H3.

For test [2], the system named is B7-H3. The experiment in a line: ka (M^-1s^-1).
From the text: as §3
Head of the field: ka (M^-1s^-1)
as §1, with “The patent's description of the figure: FIGS.” for “FIGS.”
as §4, §5

The target of the next test is T2, murine B7-H3 (mB7-H3) (Mus musculus, UniProt Q8VE98).
T2 sequence (Q8VE98 29-316): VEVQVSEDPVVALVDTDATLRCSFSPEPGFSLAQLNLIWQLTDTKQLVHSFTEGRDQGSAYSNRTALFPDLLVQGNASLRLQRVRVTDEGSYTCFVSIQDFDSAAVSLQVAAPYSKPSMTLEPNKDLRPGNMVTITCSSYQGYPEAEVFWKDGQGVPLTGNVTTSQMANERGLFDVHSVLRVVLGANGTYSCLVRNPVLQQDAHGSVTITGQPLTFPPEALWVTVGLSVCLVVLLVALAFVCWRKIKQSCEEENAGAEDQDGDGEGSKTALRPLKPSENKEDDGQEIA
The experiment in a line: SPR binding to murine B7-H3. As to the method: FIGS. 24A-24C. SPR analysis of the selected peptides B1.1 and JP5. The B1.1 variant was analyzed at analyte concentrations of 7.5, 15, 30, 60, and 120 nM (FIG. 24A) and the JP5 variant was analyzed at analyte concentrations of 22.2, 66.6, 200, 600 and 1800 nM (FIG. 24B). (FIG. 24C) Binding kinetics of each peptide.
as §2
Surface plasmon resonance was used to evaluate binding of B1.1 and JP5 to both human and murine B7-H3 (FIGS. 24A-24C).

pKd: −log10 of the molar value. Where a SMILES comes first, the peptide text is derived from it. Bridges are numbered along the chain shown (N, C = ends).

On to `CSCC[C@@H]1NC(=O)[C@H](CO)NC(=O)[C@H](Cc2c[nH]cn2)NC(=O)[C@@H]2CSSC[C@H](NC(=O)[C@H]([C@@H](C)O)NC(=O)[C@H](Cc3ccc(O)cc3)NC(=O)[C@H](Cc3ccccc3)NC1=O)C(=O)N[C@H](C(=O)N[C@@H](CO)C(=O)NCC(N)=O)CCCCNC(=O)CC[C@H](NC(=O)[C@H](CC(C)C)NC(=O)[C@H](C)NC(=O)[C@H](Cc1c[nH]c3ccccc13)NC(C)=O)C(=O)N[C@@H](CC(C)C)C(=O)N2` [B1.1, acWALQLCHSMFYTCKSG] (Ac-WALELCHSMFYTCKSG-NH2; lactam 4-14; disulfide 6-13), for which the pKd at biotinylated B7-H3 was 7.36. In addition, in the test on B7-H3 [1], the “kd (s^-1)” value is given as 6.74e^-3. Also, in the test with B7-H3 [2], the “ka (M^-1s^-1)” value was 1.55e^5. Moreover, the KD result at murine B7-H3 (mB7-H3) was “binds to murine B7-H3”.
